Patent US10005767B2, “Compositions and methods for inhibition of the JAK pathway” (Rigel Pharmaceuticals, Inc., priority 2009, dated 2018)
Where two headings read alike, the source gives them in different places.

Test system: human primary T-cells, IL-2 stimulated proliferation (JAK-1 and JAK-3 dependent; reported as JAK3 activity)
Assay: Human primary T-cell proliferation stimulated by IL-2 (Example 3)
Format: cell-based
Settings: tested under conditions described in Example 3 (IL-2 stimulated human primary T-cell proliferation), read-out: ability to inhibit JAK3 activity, IC50 range (Table V)
Procedure, shortened: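 Peripheral-blood human T-cells pre-activated via TCR/CD28, IL-2-starved overnight, then cultured 72 h at 37 °C with compound in Yssel's medium containing IL-2 (80 U/mL in cell suspension). Proliferation read as viable-cell ATP by CellTiter-Glo luminescence; reduction versus control taken as JAK pathway inhibition.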

Compound	IC50 (Homo sapiens, T-cell) [nM]	IC50 [nM]
Cc1cnc(Nc2ccc(N3CCC(NC(=O)NCc4ccccc4)C3)nc2)nc1Nc1ccc2oc(=O)[nH]c2c1 (stereo not shown) [II-98, 1-benzyl-3-(1-(5-(5-methyl-4-(2-oxo-2,3-dihydrobenzo[d]oxazol-5-ylamino)pyrimidin-2-ylamino)pyridin-2-yl)pyrrolidin-3-yl)urea]	< 500	
Cc1cnc(Nc2ccc(N[C@H]3CCCN(Cc4ccccc4)C3)nc2)nc1Nc1ccc2oc(=O)[nH]c2c1 [II-99, (S)-5-(2-(6-(1-benzylpiperidin-3-ylamino)pyridin-3-ylamino)-5-methylpyrimidin-4-ylamino)benzo[d]oxazol-2(3H)-one]	< 500	
Cc1cnc(Nc2ccc(N(C)[C@H]3CCCN(Cc4ccccc4)C3)nc2)nc1Nc1ccc2oc(=O)[nH]c2c1 [II-100, (S)-5-(2-(6-((1-benzylpiperidin-3-yl)(methyl)amino)pyridin-3-ylamino)-5-methylpyrimidin-4-ylamino)benzo[d]oxazol-2(3H)-one]		< 500
Cc1cnc(Nc2ccc(N3CCC(NC(=O)C4CC4)C3)nc2)nc1Nc1ccc2oc(=O)[nH]c2c1 (stereo not shown) [II-101, N-(1-(5-(5-methyl-4-(2-oxo-2,3-dihydrobenzo[d]oxazol-5-ylamino)pyrimidin-2-ylamino)pyridin-2-yl)pyrrolidin-3-yl)cyclopropanecarboxamide]	< 500	
Cc1cnc(Nc2ccc(N3CCC(NC(=O)C(C)(C)C)C3)nc2)nc1Nc1ccc2oc(=O)[nH]c2c1 (stereo not shown) [II-102, N-(1-(5-(5-methyl-4-(2-oxo-2,3-dihydrobenzo[c]oxazol-5-ylamino)pyrimidin-2-ylamino)pyridin-2-yl)pyrrolidin-3-yl)pivalamide]		< 500
Cc1cnc(Nc2ccc(N(C)[C@H]3CCCNC3)nc2)nc1Nc1ccc2oc(=O)[nH]c2c1 [II-103, (S)-5-(5-methyl-2-(6-(methyl(piperidin-3-yl)amino)pyridin-3-ylamino)pyrimidin-4-ylamino)benzo[d]oxazol-2(3H)-one]	< 500	
Cc1cnc(Nc2ccc(N[C@H]3CCCNC3)nc2)nc1Nc1ccc2oc(=O)[nH]c2c1 [II-104, (S)-5-(5-methyl-2-(6-(piperidin-3-ylamino)pyridin-3-ylamino)pyrimidin-4-ylamino)benzo[d]oxazol-2(3H)-one]	< 500	
Cc1cnc(Nc2ccc(N(C)[C@@H]3CCCN(Cc4ccccc4)C3)nc2)nc1Nc1ccc2oc(=O)[nH]c2c1 [II-106, (R)-5-(2-(6-((1-benzylpiperidin-3-yl)(methyl)amino)pyridin-3-ylamino)-5-methylpyrimidin-4-ylamino)benzo[d]oxazol-2(3H)-one]	< 500	
Cc1cnc(Nc2ccc(N[C@@H]3CCCNC3)nc2)nc1Nc1ccc2oc(=O)[nH]c2c1 [II-107, (R)-5-(5-methyl-2-(6-(piperidin-3-ylamino)pyridin-3-ylamino)pyrimidin-4-ylamino)benzo[d]oxazol-2(3H)-one]	< 500	
Cc1cnc(Nc2ccc(N(C)[C@@H]3CCCNC3)nc2)nc1Nc1ccc2oc(=O)[nH]c2c1 [II-108, (R)-5-(5-methyl-2-(6-(methyl(piperidin-3-yl)amino)pyridin-3-ylamino)pyrimidin-4-ylamino)benzo[d]oxazol-2(3H)-one]	< 500	
Cc1cnc(Nc2cnc(N3C[C@@H]4C[C@H]3CN4C)c(C(F)(F)F)c2)nc1Nc1ccc2oc(=O)[nH]c2c1 [II-109, N4-(benzo[d]oxazolin-2(3H)-one-5-yl)-5-methyl-N2-[2-((1S,4S)-5-methyl-2,5-diazabicyclo[2.2.1]heptan-2-yl)-3-trifluoromethylpyridine-5-yl]-2,4-pyrimidinediamine]	< 500	
CCN1CCN(c2ncc(Nc3ncc(C)c(Nc4ccc5oc(=O)[nH]c5c4)n3)cc2C(F)(F)F)CC1 [II-110, N4-(benzo[d]oxazolin-2(3H)-one-5-yl)-N2-[2-(4-ethylpiperazin-1-yl)-3-trifluoromethylpyridine-5-yl]-5-methyl-2,4-pyrimidinediamine]	< 500	
Cc1cnc(Nc2cnc(N3CCN(C)CC3)c(F)c2)nc1Nc1ccc2oc(=O)[nH]c2c1 [II-111, N4-(benzo[d]oxazolin-2(3H)-one-5-yl)-N2-[3-fluoro-2-(4-methylpiperazin-1-yl)pyridine-5-yl]-5-methyl-2,4-pyrimidinediamine]	< 500	
Cc1cnc(Nc2cnc(N3CCN4CCC[C@H]4C3)c(F)c2)nc1Nc1ccc2oc(=O)[nH]c2c1 [II-112, N4-(benzo[d]oxazolin-2(3H)-one-5-yl)-N2-{2-[(8S)-1,4-diazabicyclo[4.3.0]nonane-1-yl]-3-fluoropyridine-5-yl}-5-methyl-2,4-pyrimidinediamine]		< 500
Cc1cnc(Nc2cnc(N3CCN4CCC[C@@H]4C3)c(F)c2)nc1Nc1ccc2oc(=O)[nH]c2c1 [II-113, N4-(benzo[d]oxazolin-2(3H)-one-5-yl)-N2-{2-[(8R)-1,4-diazabicyclo[4.3.0]nonane-1-yl]-3-fluoropyridine-5-yl}-5-methyl-2,4-pyrimidinediamine]		< 500
CCN1CCN(c2ncc(Nc3ncc(C)c(Nc4ccc5oc(=O)[nH]c5c4)n3)cc2F)CC1 [II-114, N4-(benzo[d]oxazolin-2(3H)-one-5-yl)-N2-[2-(4-ethylpiperazin-1-yl)-3-fluoropyridine-5-yl]-5-methyl-2,4-pyrimidinediamine]	< 500	
Cc1cnc(Nc2cnc(N3C[C@@H]4C[C@H]3CN4C)c(C#N)c2)nc1Nc1ccc2oc(=O)[nH]c2c1 [II-115, N4-(benzo[d]oxazolin-2(3H)-one-5-yl)-N2-[3-cyano-2-((1S,4S)-5-methyl-2,5-diazabicyclo[2.2.1]heptan-2-yl)pyridine-5-yl]-5-methyl-2,4-pyrimidinediamine]	< 500	
Cc1cnc(Nc2cnc(N3CCN(C)CC3)c(Cl)c2)nc1Nc1ccc2oc(=O)[nH]c2c1 [II-116, N2-[3-chloro-2-(4-methylpiperazino)pyridin-5-yl]-5-methyl-N4-(2-oxo-2,3-dihydro-1,3-benzoxazol-5-yl)-2,4-pyrimidinediamine]	< 500	
Cc1cnc(Nc2ccc(N3CC4(C)CN(C)CC(C)(C3)C4)nc2)nc1Nc1ccc2oc(=O)[nH]c2c1 [II-117, 5-methyl-N4-(2-oxo-2,3-dihydro-1,3-benzoxazol-5-yl)-N2-[2-(1,3,5-trimethyl-3,7-diazabicyclo[3.3.1]nonan-7-yl)pyridin-5-yl]-2,4-pyrimidinediamine]	< 500	
CCN1CC2CN(c3ncc(Nc4ncc(C)c(Nc5ccc6oc(=O)[nH]c6c5)n4)cc3Cl)CC2C1 (stereo not shown) [II-118, N2-[3-chloro-2-(3-ethyl-3,7-diazabicyclo[3.3.0]octan-7-yl)pyridin-5-yl]-5-methyl-N4-(2-oxo-2,3-dihydro-1,3-benzoxazol-5-yl)-2,4-pyrimidinediamine]	< 500	
CCN1CC2CN(c3ncc(Nc4ncc(C)c(Nc5ccc6oc(=O)[nH]c6c5)n4)cc3C(F)(F)F)CC2C1 (stereo not shown) [II-119, N2-[2-(3-ethyl-3,7-diazabicyclo[3.3.0]octan-7-yl)-3-trifluoromethylpyridin-5-yl]-5-methyl-N4-(2-oxo-2,3-dihydro-1,3-benzoxazol-5-yl)-2,4-pyrimidinediamine]	< 500	
Cc1cnc(Nc2ccc(N3CC4CN(C)CC4C3)nc2)nc1Nc1ccc2oc(=O)[nH]c2c1 (stereo not shown) [II-120, 5-methyl-N2-[2-(3-methyl-3,7-diazabicyclo[3.3.0]octan-7-yl)pyridin-5-yl]-N4-(2-oxo-2,3-dihydro-1,3-benzoxazol-5-yl)-2,4-pyrimidinediamine]	< 500	
